Calls of active or inactive are those of the source.
How the values were obtained:
[1] = test system: Streptococcus sp. 'group A'; assay: Streptococcus pyogenes SK(-)GAS viability under kanamycin – luminescence, BacTiterGlo, confirmation, counter-screen for streptokinase expression inhibitor project, dose response (AID 1900); assay type: functional, organism-based
[2] = target: T1, Kappa-type opioid receptor (Homo sapiens, UniProt P41145); assay type: functional
[3] = target: Induced myeloid leukemia cell differentiation protein Mcl-1 (Homo sapiens, UniProt Q07820); assay type: functional
[4] = target: Bifunctional protein GlmU (Mycobacterium tuberculosis, UniProt P9WMN3); assay: Inhibitors of Mycobacterial Glucosamine-1-phosphate acetyl transferase (GlmU). Secondary screen.; design: species or system Mycobacterium tuberculosis H37Rv
[5] = test system: CHO; assay: CHO cell viability loss, potency – luminescence, cytotoxicity control for TLR9-MyD88 binding inhibitor project, dose response (AID 588339); assay type: functional, cell-based, hamster; conditions: Cricetulus griseus;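 further: CHO cells stably coexpressing TLR9 and MyD88 fusions from primary screen; compound exposure lasted 48 hours before viability readout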
[6] = test system: Streptococcus; assay: GAS UMAA2166 growth inhibition – luminescence, BacTiterGlo, counter-screen for streptokinase expression inhibitor project, dose response (AID 1915); assay type: functional, organism-based;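 further: potency for reduction of bacterial viability or growth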
[7] = target: T2, Streptokinase A (Streptococcus pyogenes serotype M1, UniProt P10520); assay: viability-normalized secreted streptokinase activity reduction – plasminogen activation absorbance, OD405, dose response (AID 1914); assay type: functional, Streptococcus pyogenes M1 GAS;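 further: secreted streptokinase activity via plasminogen activation per viability signal from cell pellet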
T2 sequence (P10520 whole entry): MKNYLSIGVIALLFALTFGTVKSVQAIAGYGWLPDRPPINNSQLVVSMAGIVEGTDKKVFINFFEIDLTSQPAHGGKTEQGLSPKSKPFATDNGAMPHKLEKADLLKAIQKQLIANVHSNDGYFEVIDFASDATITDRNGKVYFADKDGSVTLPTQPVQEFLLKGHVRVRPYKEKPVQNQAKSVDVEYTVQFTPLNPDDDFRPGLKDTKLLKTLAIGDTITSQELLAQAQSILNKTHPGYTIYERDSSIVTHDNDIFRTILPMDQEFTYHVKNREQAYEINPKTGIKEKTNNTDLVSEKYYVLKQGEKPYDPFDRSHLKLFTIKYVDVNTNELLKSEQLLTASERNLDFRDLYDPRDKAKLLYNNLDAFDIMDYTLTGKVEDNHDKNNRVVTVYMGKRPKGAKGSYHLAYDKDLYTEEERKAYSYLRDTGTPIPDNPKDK

[8] = target: T3, Protein RecA (Mycobacterium tuberculosis, UniProt P9WHJ3); assay: Fluorescence Cell-Free Homogeneous Dose Retest to Identify Inhibitors of RecA-Intein Splicing Activity. [Related pubchem assays (depositor defined):AID2097, AID2223, AID489010, AID492950]; assay type: functional
T3 sequence (P9WHJ3 whole entry): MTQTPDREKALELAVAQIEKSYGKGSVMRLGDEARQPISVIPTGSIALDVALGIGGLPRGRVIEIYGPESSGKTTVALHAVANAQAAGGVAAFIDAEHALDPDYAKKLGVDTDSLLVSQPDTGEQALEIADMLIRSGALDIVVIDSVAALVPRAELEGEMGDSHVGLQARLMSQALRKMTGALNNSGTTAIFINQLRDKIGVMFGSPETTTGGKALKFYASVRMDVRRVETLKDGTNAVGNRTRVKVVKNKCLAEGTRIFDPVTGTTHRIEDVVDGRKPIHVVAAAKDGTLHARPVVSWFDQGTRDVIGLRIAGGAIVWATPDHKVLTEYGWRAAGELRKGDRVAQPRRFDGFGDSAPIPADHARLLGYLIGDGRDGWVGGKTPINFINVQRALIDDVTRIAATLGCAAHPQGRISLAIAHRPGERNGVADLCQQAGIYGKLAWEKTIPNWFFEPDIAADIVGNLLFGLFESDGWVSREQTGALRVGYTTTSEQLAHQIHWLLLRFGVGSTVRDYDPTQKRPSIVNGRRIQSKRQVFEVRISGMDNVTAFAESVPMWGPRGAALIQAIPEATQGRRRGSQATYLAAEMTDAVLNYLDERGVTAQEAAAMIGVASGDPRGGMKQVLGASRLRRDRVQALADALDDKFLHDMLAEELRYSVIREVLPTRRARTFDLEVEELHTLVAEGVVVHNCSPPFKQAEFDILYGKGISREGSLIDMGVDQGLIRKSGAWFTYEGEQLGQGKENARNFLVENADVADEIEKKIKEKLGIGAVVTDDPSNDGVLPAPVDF

[9] = target: T4, Delta-type opioid receptor (Homo sapiens, UniProt P41143); assay: HTS Image-Based Screen for Antagonists of the DOR Receptor. [Related pubchem assays (depositor defined):AID1777, AID1785, AID1786, AID2133]; assay type: functional
[10] = target: T4, Delta-type opioid receptor; assay: HTS Image-Based Screen for Agonists of the DOR Receptor. [Related pubchem assays (depositor defined):AID1777, AID1786, AID2133]; assay type: functional
[11] = target: Beta Lactamase (Pseudomonas aeruginosa, UniProt Q932Y6); assay: BLA reporter interference, concentration series – BLA reporter cells, FRET fluorescence, artefact control for TLR9-MyD88 binding inhibitor project, dose response (AID 588341); assay type: cell-based;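 further: cell based assay in CHO-K1 cells stably expressing beta-lactamase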
[12] = target: T1, Kappa-type opioid receptor; assay type: functional; remark: listed apart in the source
[13] = target: T5, Replicative DNA helicase DnaB (Mycobacterium tuberculosis, UniProt P9WMR3); assay: DnaB intein splicing inhibitors, dose response, biochemical, cell-free fluorescence (AID 449749); assay type: functional
T5 sequence (P9WMR3 whole entry): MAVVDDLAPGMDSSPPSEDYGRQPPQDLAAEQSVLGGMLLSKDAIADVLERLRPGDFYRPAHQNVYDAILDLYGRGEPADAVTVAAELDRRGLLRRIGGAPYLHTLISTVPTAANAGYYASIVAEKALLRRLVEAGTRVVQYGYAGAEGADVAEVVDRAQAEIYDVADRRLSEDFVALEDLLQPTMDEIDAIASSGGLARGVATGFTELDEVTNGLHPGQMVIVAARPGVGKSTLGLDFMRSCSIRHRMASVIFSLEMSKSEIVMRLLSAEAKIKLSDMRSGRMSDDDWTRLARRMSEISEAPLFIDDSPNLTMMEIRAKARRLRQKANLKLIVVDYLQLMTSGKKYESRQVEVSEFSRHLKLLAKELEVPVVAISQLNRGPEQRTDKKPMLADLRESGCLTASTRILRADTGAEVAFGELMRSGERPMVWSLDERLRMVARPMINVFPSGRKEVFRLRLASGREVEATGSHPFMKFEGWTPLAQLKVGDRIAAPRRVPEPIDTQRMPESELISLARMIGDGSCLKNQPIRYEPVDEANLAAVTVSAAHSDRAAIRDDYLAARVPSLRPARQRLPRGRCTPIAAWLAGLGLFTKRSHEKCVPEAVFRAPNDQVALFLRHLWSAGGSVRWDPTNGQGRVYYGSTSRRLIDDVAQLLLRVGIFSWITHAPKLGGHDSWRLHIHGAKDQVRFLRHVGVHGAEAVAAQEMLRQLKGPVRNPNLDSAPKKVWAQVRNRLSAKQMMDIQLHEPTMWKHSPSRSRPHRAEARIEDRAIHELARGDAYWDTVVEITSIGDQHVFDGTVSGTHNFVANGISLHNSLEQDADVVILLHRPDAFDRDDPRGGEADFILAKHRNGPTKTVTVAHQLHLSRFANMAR

[14] = target: Beta-galactosidase (Escherichia coli, UniProt Q8VNN2); assay type: functional
[15] = target: T6, Fatty acid synthase (Homo sapiens, UniProt P49327); assay: inhibition of human FAS-TE enzyme activity – biochemical, endpoint fluorescence intensity, uHTS hits, dose response (AID 624327); assay type: functional;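 further: fluorescence from hydrolysis of an O-methyl fluorescein acyl ester substrate by the enzyme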
[16] = target: T6, Fatty acid synthase; assay: inhibition of human FAS-TE enzyme activity – biochemical, kinetic fluorescence intensity, dose response (AID 624326); assay type: functional;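 further: rate of fluorescence rise from hydrolysis of a fluorogenic O-methyl fluorescein ester substrate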
[17] = target: Mu-type opioid receptor (Homo sapiens, UniProt P35372); assay: HTS Image-Based Screen for Agonists of the MOR Receptor. [Related pubchem assays (depositor defined):AID1777, AID1785, AID1786, AID2133]; assay type: functional;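 further: imaging of beta-arrestin GFP recruitment into spots after receptor activation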
[18] = test system: HEK293; assay: optical interference in Abeta FP readout, dose response, artefact control for IDE activator project, biochemical, fluorescence polarization (AID 588442); assay type: functional, cell-based; conditions: Homo sapiens
[19] = target: T7, Ubiquitin-conjugating enzyme E2 N (Homo sapiens, UniProt P61088); assay type: functional
T7 sequence (P61088 whole entry): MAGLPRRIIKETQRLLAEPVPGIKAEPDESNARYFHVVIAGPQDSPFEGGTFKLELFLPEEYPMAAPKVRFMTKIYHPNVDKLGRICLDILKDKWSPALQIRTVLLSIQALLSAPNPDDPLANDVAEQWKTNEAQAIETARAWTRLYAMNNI

[20] = target: T8, Bcl-2-related protein A1 (Mus musculus, UniProt Q07440); assay type: functional;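 further: confirmatory dose–response counterscreen on Bfl-1, used to check hits from a UBC13 polyubiquitin inhibitor campaign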
T8 sequence (Q07440 whole entry): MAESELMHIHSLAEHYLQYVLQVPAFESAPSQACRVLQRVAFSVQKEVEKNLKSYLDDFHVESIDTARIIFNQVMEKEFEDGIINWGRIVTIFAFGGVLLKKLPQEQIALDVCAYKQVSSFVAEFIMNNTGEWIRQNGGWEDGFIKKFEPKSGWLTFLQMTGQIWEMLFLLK

[21] = target: T7, Ubiquitin-conjugating enzyme E2 N; assay type: functional; remark: listed apart in the source
[22] = test system: HEK293; assay: membrane integrity loss in HEK cells – cell-based, fluorescence, cytotoxicity control for IDE activator project, dose response (AID 588440); assay type: functional; conditions: Homo sapiens;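 further: cytotoxicity by LDH release measuring loss of membrane integrity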
[23] = target: T9, Insulin-degrading enzyme (Homo sapiens, UniProt P14735); assay: cellular IDE activation of Abeta substrate cleavage – fluorescence polarization, HEK cells, dose response (AID 588439); assay type: functional, cell-based
T9 sequence (P14735 whole entry): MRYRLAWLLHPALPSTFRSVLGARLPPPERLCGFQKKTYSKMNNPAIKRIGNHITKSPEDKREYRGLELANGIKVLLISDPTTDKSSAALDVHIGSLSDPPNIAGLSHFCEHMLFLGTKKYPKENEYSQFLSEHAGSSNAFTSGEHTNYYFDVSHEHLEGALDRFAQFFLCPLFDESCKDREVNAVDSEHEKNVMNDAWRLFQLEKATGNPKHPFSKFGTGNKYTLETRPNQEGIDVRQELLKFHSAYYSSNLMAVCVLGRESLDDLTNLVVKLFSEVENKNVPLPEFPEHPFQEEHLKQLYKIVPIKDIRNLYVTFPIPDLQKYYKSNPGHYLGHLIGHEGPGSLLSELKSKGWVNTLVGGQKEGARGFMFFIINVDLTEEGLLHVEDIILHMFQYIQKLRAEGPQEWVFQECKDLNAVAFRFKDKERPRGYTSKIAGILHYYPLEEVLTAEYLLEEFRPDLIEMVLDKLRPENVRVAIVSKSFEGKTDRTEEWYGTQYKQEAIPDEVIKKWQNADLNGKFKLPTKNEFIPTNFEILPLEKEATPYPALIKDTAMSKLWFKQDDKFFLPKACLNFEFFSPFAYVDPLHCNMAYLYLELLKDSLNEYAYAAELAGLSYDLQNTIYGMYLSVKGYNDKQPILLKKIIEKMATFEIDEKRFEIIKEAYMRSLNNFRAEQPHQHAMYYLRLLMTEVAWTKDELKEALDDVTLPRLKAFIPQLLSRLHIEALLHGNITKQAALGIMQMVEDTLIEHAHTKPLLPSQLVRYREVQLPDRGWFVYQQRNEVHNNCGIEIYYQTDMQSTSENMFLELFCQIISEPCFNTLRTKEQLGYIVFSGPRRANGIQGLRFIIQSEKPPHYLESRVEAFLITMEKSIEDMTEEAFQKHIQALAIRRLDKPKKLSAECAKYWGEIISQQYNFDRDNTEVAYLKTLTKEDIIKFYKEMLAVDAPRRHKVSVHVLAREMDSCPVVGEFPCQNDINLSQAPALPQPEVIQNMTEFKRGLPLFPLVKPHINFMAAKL

[24] = target: T9, Insulin-degrading enzyme; assay: recombinant IDE activation, cell-free – biochemical, fluorescence polarization, counter-screen for IDE activator project, dose response (AID 588681)

T1 sequence (P41145 whole entry): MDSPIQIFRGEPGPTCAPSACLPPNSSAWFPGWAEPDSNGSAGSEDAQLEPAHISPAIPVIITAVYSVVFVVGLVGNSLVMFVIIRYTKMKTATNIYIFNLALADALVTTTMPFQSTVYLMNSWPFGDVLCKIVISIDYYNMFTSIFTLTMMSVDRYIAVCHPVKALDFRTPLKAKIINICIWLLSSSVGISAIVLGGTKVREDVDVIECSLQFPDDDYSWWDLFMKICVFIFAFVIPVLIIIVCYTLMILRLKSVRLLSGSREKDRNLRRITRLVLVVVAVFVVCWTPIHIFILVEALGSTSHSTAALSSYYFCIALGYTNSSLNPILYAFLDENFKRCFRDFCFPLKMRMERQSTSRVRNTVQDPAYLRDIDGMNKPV
T6 sequence (P49327 whole entry): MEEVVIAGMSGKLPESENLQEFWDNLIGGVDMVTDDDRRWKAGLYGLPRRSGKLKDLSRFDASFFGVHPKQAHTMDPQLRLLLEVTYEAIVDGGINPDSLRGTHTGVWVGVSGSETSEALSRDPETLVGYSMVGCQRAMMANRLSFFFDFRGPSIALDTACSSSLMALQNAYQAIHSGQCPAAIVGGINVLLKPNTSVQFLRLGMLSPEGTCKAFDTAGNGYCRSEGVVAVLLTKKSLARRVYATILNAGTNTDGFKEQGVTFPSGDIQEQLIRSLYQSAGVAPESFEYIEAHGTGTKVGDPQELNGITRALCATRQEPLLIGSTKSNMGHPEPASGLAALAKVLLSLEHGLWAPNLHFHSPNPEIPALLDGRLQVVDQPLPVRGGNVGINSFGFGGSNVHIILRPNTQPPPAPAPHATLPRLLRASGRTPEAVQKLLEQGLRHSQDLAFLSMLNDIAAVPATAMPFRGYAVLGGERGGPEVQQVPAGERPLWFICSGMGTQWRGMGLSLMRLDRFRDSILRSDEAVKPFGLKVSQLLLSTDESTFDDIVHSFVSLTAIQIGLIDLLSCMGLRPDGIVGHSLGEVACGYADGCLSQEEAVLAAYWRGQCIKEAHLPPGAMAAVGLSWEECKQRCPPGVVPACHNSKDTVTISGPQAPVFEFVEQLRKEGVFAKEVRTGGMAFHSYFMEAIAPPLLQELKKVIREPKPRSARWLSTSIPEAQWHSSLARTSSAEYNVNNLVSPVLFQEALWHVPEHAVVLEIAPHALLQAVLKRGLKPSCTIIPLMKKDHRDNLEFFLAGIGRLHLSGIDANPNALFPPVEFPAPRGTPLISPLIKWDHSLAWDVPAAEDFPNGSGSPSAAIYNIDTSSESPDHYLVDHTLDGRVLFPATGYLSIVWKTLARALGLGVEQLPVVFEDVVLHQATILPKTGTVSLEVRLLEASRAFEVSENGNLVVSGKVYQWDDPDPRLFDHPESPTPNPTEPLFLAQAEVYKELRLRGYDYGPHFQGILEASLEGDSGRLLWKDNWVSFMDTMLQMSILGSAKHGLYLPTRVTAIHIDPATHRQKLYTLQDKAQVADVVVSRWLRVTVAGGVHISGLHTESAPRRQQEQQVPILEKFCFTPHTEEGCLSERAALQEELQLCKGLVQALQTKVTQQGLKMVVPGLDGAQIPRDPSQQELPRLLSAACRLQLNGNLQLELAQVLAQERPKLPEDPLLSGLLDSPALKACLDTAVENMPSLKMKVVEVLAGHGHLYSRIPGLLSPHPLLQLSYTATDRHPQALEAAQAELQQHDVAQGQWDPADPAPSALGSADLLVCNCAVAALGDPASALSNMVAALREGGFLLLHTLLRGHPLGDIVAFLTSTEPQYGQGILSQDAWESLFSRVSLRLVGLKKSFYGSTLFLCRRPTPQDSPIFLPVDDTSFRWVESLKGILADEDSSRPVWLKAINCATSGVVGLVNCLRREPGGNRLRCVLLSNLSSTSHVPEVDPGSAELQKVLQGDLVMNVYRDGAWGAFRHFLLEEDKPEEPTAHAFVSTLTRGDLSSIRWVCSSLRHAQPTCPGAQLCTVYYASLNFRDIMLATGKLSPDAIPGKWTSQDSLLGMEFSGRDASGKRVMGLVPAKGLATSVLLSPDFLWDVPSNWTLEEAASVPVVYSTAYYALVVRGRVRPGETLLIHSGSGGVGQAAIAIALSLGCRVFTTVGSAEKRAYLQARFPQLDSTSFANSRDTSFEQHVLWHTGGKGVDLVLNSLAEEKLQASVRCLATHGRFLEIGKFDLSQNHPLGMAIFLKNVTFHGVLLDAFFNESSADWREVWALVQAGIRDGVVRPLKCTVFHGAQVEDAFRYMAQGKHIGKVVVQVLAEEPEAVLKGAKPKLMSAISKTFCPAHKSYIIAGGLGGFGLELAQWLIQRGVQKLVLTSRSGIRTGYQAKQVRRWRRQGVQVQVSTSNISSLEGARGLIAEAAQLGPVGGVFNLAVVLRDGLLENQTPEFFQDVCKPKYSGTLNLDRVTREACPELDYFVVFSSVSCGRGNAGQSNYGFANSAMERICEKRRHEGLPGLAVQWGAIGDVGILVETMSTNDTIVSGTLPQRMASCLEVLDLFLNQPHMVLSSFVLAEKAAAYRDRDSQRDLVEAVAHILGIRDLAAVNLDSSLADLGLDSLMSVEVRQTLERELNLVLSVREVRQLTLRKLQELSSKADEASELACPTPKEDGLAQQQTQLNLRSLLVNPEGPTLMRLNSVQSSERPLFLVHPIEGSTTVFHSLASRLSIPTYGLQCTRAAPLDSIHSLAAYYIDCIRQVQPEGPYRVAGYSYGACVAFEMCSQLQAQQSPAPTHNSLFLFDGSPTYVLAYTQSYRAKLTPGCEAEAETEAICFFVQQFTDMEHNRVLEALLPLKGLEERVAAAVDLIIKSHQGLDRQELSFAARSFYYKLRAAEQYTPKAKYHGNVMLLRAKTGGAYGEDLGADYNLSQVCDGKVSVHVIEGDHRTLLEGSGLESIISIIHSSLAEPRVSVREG
T4 sequence (P41143 whole entry): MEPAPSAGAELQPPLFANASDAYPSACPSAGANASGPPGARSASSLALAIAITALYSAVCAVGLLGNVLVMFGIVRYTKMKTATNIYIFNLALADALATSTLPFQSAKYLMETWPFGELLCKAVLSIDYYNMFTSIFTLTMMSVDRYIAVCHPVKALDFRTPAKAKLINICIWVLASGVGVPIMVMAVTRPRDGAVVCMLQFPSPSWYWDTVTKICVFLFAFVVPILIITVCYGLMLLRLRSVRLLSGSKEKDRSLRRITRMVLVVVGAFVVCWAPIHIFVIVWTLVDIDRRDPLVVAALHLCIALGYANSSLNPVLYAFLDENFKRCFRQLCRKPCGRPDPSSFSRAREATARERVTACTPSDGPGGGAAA
Induced myeloid leukemia cell differentiation protein Mcl-1, sequence (Q07820 whole entry): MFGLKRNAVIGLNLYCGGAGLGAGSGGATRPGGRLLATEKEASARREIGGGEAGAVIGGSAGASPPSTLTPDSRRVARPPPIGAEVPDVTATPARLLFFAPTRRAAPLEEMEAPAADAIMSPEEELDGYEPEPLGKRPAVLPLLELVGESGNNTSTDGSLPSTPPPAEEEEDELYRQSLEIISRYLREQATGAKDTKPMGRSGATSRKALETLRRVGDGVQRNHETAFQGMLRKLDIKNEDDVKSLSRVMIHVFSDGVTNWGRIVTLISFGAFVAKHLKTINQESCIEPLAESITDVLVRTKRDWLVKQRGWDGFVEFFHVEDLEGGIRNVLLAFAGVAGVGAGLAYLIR
Mu-type opioid receptor, sequence (P35372 whole entry): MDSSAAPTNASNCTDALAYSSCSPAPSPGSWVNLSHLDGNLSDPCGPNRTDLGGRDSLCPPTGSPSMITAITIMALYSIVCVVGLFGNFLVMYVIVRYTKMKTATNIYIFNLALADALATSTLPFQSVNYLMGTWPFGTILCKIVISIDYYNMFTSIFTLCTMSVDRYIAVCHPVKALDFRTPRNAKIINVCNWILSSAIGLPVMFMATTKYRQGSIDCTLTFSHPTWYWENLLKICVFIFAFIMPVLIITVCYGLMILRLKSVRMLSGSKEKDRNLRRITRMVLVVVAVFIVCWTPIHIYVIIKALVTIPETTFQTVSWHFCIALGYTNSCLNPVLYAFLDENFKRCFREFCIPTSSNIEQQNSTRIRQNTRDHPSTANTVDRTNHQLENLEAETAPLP
Bifunctional protein GlmU, sequence (P9WMN3 whole entry, the tested form may be a part): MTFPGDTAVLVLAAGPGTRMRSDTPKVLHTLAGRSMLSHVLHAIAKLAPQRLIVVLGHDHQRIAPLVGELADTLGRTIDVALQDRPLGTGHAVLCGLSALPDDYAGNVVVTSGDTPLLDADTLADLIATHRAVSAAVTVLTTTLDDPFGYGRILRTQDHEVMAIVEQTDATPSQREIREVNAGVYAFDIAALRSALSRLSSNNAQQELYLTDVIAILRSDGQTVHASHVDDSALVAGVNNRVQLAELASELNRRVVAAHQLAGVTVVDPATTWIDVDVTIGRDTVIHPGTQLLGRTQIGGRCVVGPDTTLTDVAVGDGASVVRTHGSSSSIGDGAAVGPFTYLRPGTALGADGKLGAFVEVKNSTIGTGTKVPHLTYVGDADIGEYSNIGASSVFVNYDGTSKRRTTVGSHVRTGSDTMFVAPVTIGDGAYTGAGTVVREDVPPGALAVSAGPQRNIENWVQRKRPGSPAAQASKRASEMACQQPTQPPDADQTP
Beta Lactamase, sequence (Q932Y6 whole entry): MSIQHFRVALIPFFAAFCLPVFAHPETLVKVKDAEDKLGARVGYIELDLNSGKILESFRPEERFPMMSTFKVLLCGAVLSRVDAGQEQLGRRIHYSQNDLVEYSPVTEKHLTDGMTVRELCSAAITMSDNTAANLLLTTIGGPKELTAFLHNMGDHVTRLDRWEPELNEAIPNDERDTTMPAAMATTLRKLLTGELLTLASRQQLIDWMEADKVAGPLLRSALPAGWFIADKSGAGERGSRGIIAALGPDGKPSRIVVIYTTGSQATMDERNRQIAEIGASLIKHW

With Cc1nnc(Sc2cc(NCCCO)c([N+](=O)[O-])c3nonc23)s1 the EC50 [1] was 6.33 µM (active), the IC50 [2] was over 32 µM and the IC50 [3] was 3.11 µM (active). For the same molecule, the IC50 [4] was 77.8 µM (active), the IC50 [5] was 3.37 µM (active) and the EC50 [6] was 7.62 µM (active). For the same molecule, the EC50 [7] was 21.2 µM (inconclusive), the EC50 [8] was 1.85 µM (active) and the IC50 [9] was > 32 µM (inactive). For the same molecule, the EC50 [10] was > 32 µM (inactive), the IC50 [11] was 10.9 µM (inactive) and the IC50 [12] was 6.15 µM (active). The AC50 [13] was 2.07 µM (active), the EC50 [14] was > 31.5 µM (inactive) and the IC50 [15] was 3.78 µM (active). For the same molecule, the IC50 [16] was 3.99 µM (active) and the EC50 [17] was > 32 µM (inactive).
For C#CCOCCOCCOCCNc1nc(N2CCN(C(=O)CCCCCCCCCCNC(=O)[C@H](CCCCN)n3cc(C)nn3)CC2)nc(N2CCN(C(=O)CCCCCCCCCCNC(=O)[C@H](CO)n3cc(CCCSC)nn3)CC2)n1, the EC50 [18] was > 55.9 µM (inactive), the IC50 [19] was 4.05 µM (active) and the IC50 [20] was > 20 µM (inactive). For the same molecule, the IC50 [21] was 6.96 µM (active), the IC50 [22] was 9.88 µM (active) and the EC50 [23] was > 54.7 µM (inactive). The EC50 [24] was > 6.08 µM (active).
In the case of O=C1CC2(CCCC2)CC(=O)N1c1ccccc1, the EC50 [18] is reported as > 55.9 µM (inactive), the IC50 [22] is reported as > 89.1 µM (inactive) and the EC50 [23] is reported as > 54.7 µM (inactive). For the same molecule, the EC50 [24] was > 54.7 µM (inactive).
